Experimental data reported in patent publication US20240239812A1, “MACROCYCLIC 2-ALLYLTETRAHYDROFURANS AS INHIBITORS OF MCL-1” (JANSSEN PHARMACEUTICA NV, priority 2021, published 2024).
Like-named read-outs stand apart in the source and are kept apart here.

Tests used:
[1] = tested on: MOLP-8 human multiple myeloma cell line; assay: Caspase-Glo 3/7 apoptosis induction assay in MOLP-8 cells; assay type: cell-based; conditions: caspase-3/7 activity, 2 hours at 37° C., averaged over all runs on all batches, read-out: MOLP8 AC50
From the text: MCL-1 is a regulator of apoptosis and is highly over-expressed in tumor cells that escape cell death. The assay evaluates the cellular potency of small-molecule compounds targeting regulators of the apoptosis pathway, primarily MCL-1, Bfl-1, Bcl-2, and other proteins of the Bcl-2 family. Protein-protein inhibitors disrupting the interaction of anti-apoptotic regulators with BH3-domain proteins initiate apoptosis.
The Caspase-Glo® 3/7 Assay is a luminescent assay that measures caspase-3 and -7 activities in purified enzyme preparations or cultures of adherent or suspension cells. The assay provides a proluminescent caspase-3/7 substrate, which contains the tetrapeptide sequence DEVD. This substrate is cleaved to release aminoluciferin, a substrate of luciferase used in the production of light. Addition of the single Caspase-Glo® 3/7 Reagent in an “add-mix-measure” format results in cell lysis, followed by caspase cleavage of the substrate and generation of a “glow-type” luminescent signal.
This assay uses the MOLP-8 human multiple myeloma cell line, which is sensitive to MCL-1 inhibition.
Cell cultures were maintained between 0.2 and 2.0×10^6 cells/mL. The cells were harvested by collection in 50 mL conical tubes. The cells were then pelleted at 500 g for 5 mins before removing supernatant and resuspension in fresh pre-warmed culture medium. The cells were counted and diluted as needed.
The assay reagent was prepared by transferring the buffer solution to the substrate vial and mixing. The solution may be stored for up to 1 week at 4° C. with negligible loss of signal.
Compounds were delivered in assay-ready plates (Proxiplate) and stored at −20° C.
Assays always include 1 reference compound plate containing reference compounds. The plates were spotted with 40 nL of compounds (0.5% DMSO final in cells; serial dilution; 30 μM highest conc. 1/3 dilution, 10 doses, duplicates). The compounds were used at room temperature and 4 μL of pre-warmed media was added to all wells except column 2 and 23. The negative control was prepared by adding 1% DMSO in media. The positive control was prepared by adding the appropriate positive control compound in final concentration of 60 μM in media. The plate was prepared by adding 4 μL negative control to column 23, 4 μL positive control to column 2, and 4 μL cell suspension to all wells in the plate. The plate with cells was then incubated at 37° C. for 2 hours. The assay signal reagent is the Caspase-Glo solution described above, and 8 μL was added to all wells. The plates were then sealed and measured after 30 minutes.
The activity of a test compound was calculated as percent change in apoptosis induction as follows: […]

[2] = target: Myeloid Cell Leukemia 1 (Mcl-1) (Homo sapiens (Human), UniProt Q07820); assay: Terbium labeled Mcl-1 HTRF binding assay, displacement of Cy5-labeled BIM BH3 peptide; conditions: 25 pM Tb-Mcl-1, 8 nM Cy5 Bim peptide, 60 minutes at room temperature, read-out: Tb-MCL1 Ki
Protocol: Terbium labeled Myeloid Cell Leukemia 1 (Mcl-1) homogeneous time-resolved fluorescence (HTRF) binding assay utilizing the BIM BH3 peptide (H2N—(C/Cy5Mal) WIAQELRRIGDEFN-OH) as the binding partner for Mcl-1.
This assay evaluated inhibition of the BH3 domain: Mcl-1 interaction by measuring the displacement of Cy5-labeled BIM BH3 peptide (H2N—(C/Cy5Mal) WIAQELRRIGDEFN-OH) in the HTRF assay format.
The following assay and stock buffers were prepared for use in the assay: (a) Stock buffer: 10 mM Tris-HCl, pH=7.5+150 mM NaCl, filtered, sterilized, and stored at 4° C.; and (b) 1× assay buffer, where the following ingredients were added fresh to stock buffer: 2 mM dithiothreitol (DTT), 0.0025% Tween-20, 0.1 mg/mL bovine serum albumin (BSA). The 1×Tb-Mcl-1+Cy5 Bim peptide solution was prepared by diluting the protein stock solution using the 1× assay buffer (b) to 25 pM Tb-Mcl-1 and 8 nM Cy5 Bim peptide.
Using the Acoustic ECHO, 100 nL of 100× test compound(s) were dispensed into individual wells of a white 384-well Perkin Elmer Proxiplate, for a final compound concentration of 1× and final DMSO concentration of 1%. Inhibitor control and neutral control (NC, 100 nL of 100% DMSO) were stamped into columns 23 and 24 of assay plate, respectively. Into each well of the plate was then dispensed 10 μL of the 1×Tb-Mcl-1+Cy5 Bim peptide solution. The plate was centrifuged with a cover plate at 1000 rpm for 1 minute, then incubated for 60 minutes at room temperature with plates covered.
The TR-FRET signal was read on an BMG PHERAStar FSX MicroPlate Reader at room temperature using the HTRF optic module (HTRF: excitation: 337 nm, light source: laser, emission A: 665 nm, emission B: 620 nm, integration start: 60 μs, integration time: 400 μs).
The BMG PHERAStar FSX MicroPlate Reader was used to measure fluorescence intensity at two emission wavelengths—665 nm and 620 nm—and report relative fluorescence units (RFU) for both emissions, as well as a ratio of the emissions (665 nm/620 nm)*10,000. The RFU values were normalized to percent inhibition as follows:
% inhibition(((NC−IC)−(compound−IC))/(NC−IC))*100
where IC (inhibitor control, low signal)=mean signal of 1× Tb-MCl-1+Cy5 Bim peptide+inhibitor control or 100% inhibition of Mcl-1; NC (neutral control, high signal)=mean signal 1×Tb-MCl-1+Cy5 Bim peptide with DMSO only or 0% inhibition
An 11-point dose response curve was generated to determine IC50 values (using GenData) based on the following equation:
where Y=% inhibition in the presence of X inhibitor concentration; Top=100% inhibition derived from the IC (mean signal of Mcl-1+inhibitor control); Bottom=0% inhibition derived from the NC (mean signal of Mcl-1+DMSO); Hillslope=Hill coefficient; and IC50=concentration of compound with 50% inhibition in relation to top/neutral control (NC).
Representative compounds of the present invention were tested according to the procedure as described above, with results as listed in the Table below (n.d. means not determined).

Sequence of Myeloid Cell Leukemia 1 (Mcl-1) (Q07820 whole entry): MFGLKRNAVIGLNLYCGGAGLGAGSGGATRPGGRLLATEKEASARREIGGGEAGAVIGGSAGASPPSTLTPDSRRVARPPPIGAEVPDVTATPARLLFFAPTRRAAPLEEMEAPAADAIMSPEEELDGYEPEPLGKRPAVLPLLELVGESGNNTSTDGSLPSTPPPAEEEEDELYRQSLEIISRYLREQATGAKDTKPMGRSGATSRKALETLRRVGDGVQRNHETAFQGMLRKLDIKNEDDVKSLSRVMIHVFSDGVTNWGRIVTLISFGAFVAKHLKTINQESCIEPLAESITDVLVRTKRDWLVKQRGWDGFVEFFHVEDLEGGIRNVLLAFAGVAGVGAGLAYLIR

Row | Structure (SMILES) | AC50 [1] [nM] | Ki [2] [nM] | AC50 ([1]; Homo sapiens, MOLP-8, 2 h) [nM]
1 | COc1nn(C)cc1C(=O)NS1(=O)=NC(=O)c2ccc3c(c2)N(C[C@@H]2CCO[C@H]2C(CN2CCN4CCOC[C@@H]4C2)(OC)/C(F)=C/C[C@H](C)C1)C[C@@]1(CCCc2cc(Cl)ccc21)CO3 (single isomer, unassigned) [Compound 28] | 23.2 | 0.011 | 
2 | COc1nn(C)cc1C(=O)NS1(=O)=NC(=O)c2ccc3c(c2)N(C[C@@H]2CCO[C@H]2C(CN2CCN4CCOC[C@@H]4C2)(OC)/C(F)=C/C[C@H](C)C1)C[C@@]1(CCCc2cc(Cl)ccc21)CO3 (single isomer, unassigned) [Compound 29] | 702 | 0.17 | 
3 | COc1nn(C)cc1C(=O)NS1(=O)=NC(=O)c2ccc3c(c2)N(C[C@@H]2CCO[C@H]2C(CN2CCN4CCOC[C@@H]4C2)(OC)/C(F)=C/C[C@H](C)C1)C[C@@]1(CCCc2cc(Cl)ccc21)CO3 (single isomer, unassigned) [Compound 30] | 28.6 | 0.014 | 
4 | CO[C@H]1/C(F)=C/C[C@H](C)[C@@H](C)S(=O)(=O)NC(=O)c2ccc3c(c2)N(C[C@@H]2CCO[C@H]21)C[C@@]1(CCCc2cc(Cl)ccc21)CO3 [Compound 1] |  | 0.218 | 191
5 | CO[C@@H]1/C(F)=C/C[C@H](C)[C@@H](C)S(=O)(=O)NC(=O)c2ccc3c(c2)N(C[C@@H]2CCO[C@H]21)C[C@@]1(CCCc2cc(Cl)ccc21)CO3 [Compound 2] |  | 1.13 | 1120
6 | CO[C@H]1/C=C/C[C@H](C)[C@@H](C)S(=O)(=O)NC(=O)c2ccc3c(c2)N(C[C@@H]2CCO[C@H]21)C[C@@]1(CCCc2cc(Cl)ccc21)CO3 [Compound 3] |  | 0.466 | 432
7 | COCC1/C=C/C[C@H](C)[C@@H](C)S(=O)(=O)NC(=O)c2ccc3c(c2)N(C[C@@H]2CCO[C@@H]12)C[C@@]1(CCCc2cc(Cl)ccc21)CO3 (stereo partly shown) [Compound 16] |  | 0.673 | 1820
8 | COCC1/C=C/C[C@H](C)[C@@H](C)S(=O)(=O)NC(=O)c2ccc3c(c2)N(C[C@@H]2CCO[C@@H]12)C[C@@]1(CCCc2cc(Cl)ccc21)CO3 (stereo partly shown) [Compound 17] | 2820 | 0.678 | 
